{"source": "patent US12616680B2", "about": "(CONSEJO SUPERIOR DE INVESTIGACIONES CIENTÍFICAS (CSIC), priority 2019, dated 2026)", "system": "R6/1 mice", "conditions": "oral in drinking water from 3 weeks of age, open field at 13 weeks, rotarod at 18 weeks, biotin 10 mg/kg/day or thiamine 200 mg/kg/day, given separately, FIG. 6A-B", "data": [{"smiles": "Cc1ncc(C[n+]2csc(CCO)c2C)c(N)n1", "note": "[thiamine]", "values": [{"measurement": "effect on hypoactivity (open field, distance covered) and motor coordination deficit (rotarod, time to fall)", "result": "only showed improving trends in some of the behavioural tests"}]}]}
